Source: US20240033246A1, “COMPOUNDS FOR TREATING EYE DISEASES AND DISORDERS” (The State of Israel, Ministry of Agriculture & Rural …, priority 2020, published 2024)

Tests used:
retinal function = assay: Dark-adapted electroretinogram (ERG), retinal function; assay type: in vivo, RPE65/rd12 mice; conditions: eye drops 12.5 mg/ml TTF twice daily, 6 days/week, 12 weeks; n=6; vs placebo eye drops
Procedure: (§1) 3 weeks old RPE65/rd12 mice were treated twice daily (6 days/week) for 12 weeks with eye drops (10p1/eye drop) containing 12.5 mg/ml (34.7 mM) TTF (n=6) or vehicle alone (DMSO, n=6).
For dark adapted ERG, the mice were placed in total darkness for at least 12 h prior to examination. Animals were anesthetized with intraperitoneal injection containing 75 mg/kg ketamine and 10 mg/kg xylazine. Pupils were dilated with topical 1% tropicamide and 10% phenylephrine HCl. ERGs were recorded from both eyes simultaneously, using golden wire loop electrodes positioned on each cornea. Chloride silver electrodes were inserted subcutaneously near the temporal canthi as reference. An additional ground electrode was placed on the tail. Tests were performed under dark adapted (scotopic), and light adapted (photopic) conditions. Five light stimuli at increasing intensities were used (0.0023, 0.25, 2.4, 4.4, 23.5 cd-s/m2). For dark adapted ERG, responses were averaged with stimulus intervals of 1 to 30 s depending on the stimulus light intensity.

IL-1β = IL-1β concentration in retinal lysates (ELISA); assay type: in vivo, RPE65/rd12 mice; conditions: eye drops 12.5 mg/ml TTF in DMSO twice daily, 6 days/week, 3 weeks; vs vehicle
Procedure: 3 weeks old RPE65/rd12 mice were treated twice daily (6 days/week) for 3 weeks with eye drops containing 12.5 mg/ml (34.7 mM) TTF in DMSO (10p1/eye drop) or vehicle alone (DMSO).
Each pair of retinas from the same mouse was homogenized in the same tube in 120 μl lysis buffer containing 10 mM TRIS pH 7.5, 100 mM NaCl, 1 mM EDTA, and 0.01% TRITON X-100. Protein concentration in each sample was determined in duplicates using a commercial kit: Pierce™ BCA Protein Assay Kit (23227), Thermo Fisher Scientific, IL, USA. IL-1β levels were tested using a commercial sandwich ELISA kit: Mouse IL-1 beta/IL-1F2 DuoSet ELISA (DY401). R&D Systems, Inc., MN, USA.

[1] = Side effects after daily TTF eye drops (general health, retinal and corneal structure); assay type: in vivo; conditions: 12 weeks of daily treatment with TTF eye drops
Procedure: as §1

retinal photoreceptors = assay: TUNEL staining of photoreceptor layer (photoreceptor apoptosis); assay type: in vivo, RPE65/rd12 mice; conditions: eye drops 12.5 mg/ml TTF in DMSO twice daily, 6 days/week, 3 weeks; n=7; p=0.0013 vs placebo
Procedure: 3 weeks old RPE65/rd12 mice were treated twice daily (6 days/week) for 3 weeks with eye drops containing 12.5 mg/ml (34.7 mM) TTF in DMSO (10 μl/eye drop) or vehicle alone (DMSO).
Mice were euthanized using C02, the eyes were obtained and fixed in 10% formalin. Frozen sections were stained with TUNEL-TMR kit following manufacturer's instructions. The number of TUNEL positive nuclei in the outer nuclear layer was counted as well as the length of retinal sections. Results are shown in FIG. 6 as the number of TUNEL positive nuclei/mm retina.

[2] = TTF eye drops crossing the corneal barrier, HPLC of anterior chamber fluids; assay type: in vivo; conditions: eye drops 12.5 mg/ml in DMSO, rabbit
Procedure: TTF eye drops (12.5 mg/ml=34.7 mM in DMSO) or vehicle (DMSO) were dropped every 10 seconds on rabbit eyes (10 eye drops of 50 μL per eye−0.5 mL total volume). The eye fluids were collected 45 minutes or 3 hours later. About 100 microliters of anterior chamber fluids were collected from each eye. The eye fluids from both eyes of the same rabbit were pooled and the amount of TTF that penetrated the cornea was determined by IPLC analysis. Twenty microliters of pooled eye fluids were filtered and injected into an Agilent UIHPLC Infinity II 1290 device equipped with a Kinetex 5 μm EVO C18 column (250*4.6 mm). Running conditions were as follows: a 10-minute gradient was delivered at a flow rate of 1 mL/min: 5 minutes in a binary mobile phase which consisted of 0.5% acetic acid (in distilled water), and 5 minutes in acetonitrile in DDW. The detection was performed at a wavelength of 350 nm since, in eye fluids taken from naive rabbits or rabbits given eye drops containing DMSO only, there was no background at 350 nm interfering with the measurement. Under these conditions, the retention time of TTF is 5.086 minutes.

microglial cells = assay: Microglial activation and migration into the sub retina, Iba-1 staining of retina flat mounts; assay type: in vivo, RPE65/rd12 mice; conditions: eye drops 12.5 mg/ml TTF in DMSO twice daily, 6 days/week, 3 weeks; n=10; p=0.0063 vs placebo
Procedure: Eyes were lightly fixed in 4% PFA. The cornea, iris and lens were removed, the neuro-retina was peeled off and the RPE flat mount was incubated with Iba-1 antibodies (Wako chemicals, USA, 1:200 in PBS and 0.1% triton-X) for 16 hours at 4° C., followed by incubation with secondary Alexa Fluor® 488-AffiniPure Donkey Anti-Mouse IgG antibody (Jackson Immuno Research; USA, 1:400 in PBS with 0.2% DAPI) for 2 hours at room temperature. Samples were visualized using a fluorescent microscope (Olympus BX51) and recorded using the Olympus DP71 camera.
3 weeks old RPE65/rd12 mice were treated twice daily (6 days/week) for 3 weeks with eye drops containing 12.5 mg/ml (34.7 mM) TTF in DMSO (10pl/eye drop) or vehicle alone (DMSO). Each treatment consisted of one eye drop. Retina flat mounts of the treated and the control RPE65/rd12 mice were prepared as described above and stained for the microglial specific marker Iba-1.

[3] = test system: retinal cone photoreceptors; assay: Eye cup cultures stained for M-cone opsin (cone photoreceptor cell death in vitro); assay type: cell-based; conditions: 8 nM TTF in growth media, 18 hours, eye cups of 21-day old RPE65/rd12 mice, vs vehicle (0.0115% DMSO)
Procedure: Eyes were obtained from 21-day old RPE65/rd12 mice, and the posterior segment was separated from the cornea, the lens, the iris, and the ciliary body under a surgical microscope. The eye cups were placed onto a microporous membrane (30 mm in diameter; Millicell-CM; Millipore, Bedford, MA) with the ganglion cell layer (GCL) facing up and the sclera facing the filter in a six-well culture plate. Each well contained 1 ml of culture medium consisting of 50% minimum essential medium/HEPES (Sigma, St. Louis, MO), 25% HBSS (Invitrogen, USA), and 25% heat inactivated fetal bovine serum (Invitrogen, USA) supplemented with 200 μM L-glutamine and 5.75 mg/ml glucose and 8 nM natural TTF (nTTF) or synthetic TTF (sTTF) or same volume of vehicle solution (0.0115% DMSO, control). The eye cups were maintained in culture at 37° C., 5% C02 incubator for 18 hours.
The eye cups were fixed with 4% paraformaldehyde (PFA) and embedded in sucrose for cryopreservation. […]
Sections from these eye cups were stained with antibodies directed against M-cone opsin (Milipore, USA) by incubating the sections with antibodies diluted 1:100 in 1% BSA (Sigma) for 16 hrs at 4° C. followed by extensive washing in PBS and 1 hour incubation with 488-AffiniPure Donkey Anti-Mouse IgG antibody (Jackson Immuno Research) at room temperature. […] The number of positively stained cells/mm retina was recorded. […]

COc1cc(-c2oc3cc(OC)c(OC)c(O)c3c(=O)c2O)ccc1O [TTF, 3,5,4′-trihydroxy-6,7,3′-trimethoxyflavone]
maximal dark-adapted ERG a-wave amplitude (retinal function): significantly higher | maximal dark-adapted ERG b-wave amplitude (retinal function): significantly higher | IL-1β concentration in the retina (IL-1β): reduced | side effects (general health, retinal and corneal structure) [1]: no side effects were observed | TUNEL positive cells in the photoreceptor layer (mean±SE) (retinal photoreceptors): 2±0.4 apoptotic cells/mm retina | crossing of the corneal barrier / penetration into the eye ([2]; 10 drops of 50 μL per eye, anterior chamber fluids): can cross the corneal barrier and penetrate the eye | time of maximal concentration of TTF in eye fluids after eye drops instillation ([2]; fluids collected at 45 minutes or 3 hours): 45 min | infiltrating subretinal microglia (mean±SD) (microglial cells): 42±14 microglia cells/retina | cone photoreceptor cell death in cultures of retinas [3]: attenuates cone photoreceptor cell death
